# Test results reported in PubChem BioAssay AID2060895 (Molecular Pharmacology Branch, DTP, NCI, 2025).
# Test system: PDC 899932-113-R3-J6 complex spheroid viability
# Test: Anticancer human tumor 899932-113-R3-J6-PDC patient-derived melanoma cell line growth inhibition [RAS]
# Conditions: for viability, T/C: stronger effect = lower value
# In short: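 Tumour cells grown as complex spheroids with HUVEC endothelial cells and mesenchymal stem cells, treated with RAS pathway inhibitor combinations. Each agent spans half-log steps from near clinical Cmax, or 10 microM where Cmax is unknown.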
# 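Wherever viability, T/C is given: spheroids exposed to agents for seven days before readout; 100% = DMSO vehicle control wells.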
structure (smiles),measurement,setting,value
O=C(c1ccc(F)c(F)c1Nc1ccc(I)cc1F)N1CC(O)([C@@H]2CCCCN2)C1 + C#Cc1c(F)ccc2cc(O)cc(-c3ncc4c(N5CC6CCC(C5)N6)nc(OCC56CCCN5CC(F)C6)nc4c3F)c12,IC50,"curve of first compound, second compound 0.0316 µM",8.97 nM
same,IC50,"curve of first compound, second compound 0.1 µM",10.1 nM
same,IC50,"curve of first compound, second compound 0.316 µM",12.1 nM
same,IC50,"curve of first compound, second compound 1 µM",10.9 nM
same,IC50,"curve of first compound, second compound 3.16 µM",10.8 nM
same,IC50,"curve of first compound, second compound 10 µM",9.02 nM
same,"viability, T/C","second compound 0.0316 µM, first compound 0.00316 µM",84.7%
same,"viability, T/C","second compound 0.0316 µM, first compound 0.01 µM",46.4%
same,"viability, T/C","second compound 0.0316 µM, first compound 0.0316 µM",7.85%
same,"viability, T/C","second compound 0.0316 µM, first compound 0.1 µM",3.11%
same,"viability, T/C","second compound 0.0316 µM, first compound 0.316 µM",3.11%
same,"viability, T/C","second compound 0.0316 µM, first compound 1 µM",1.68%
same,"viability, T/C","second compound 0.1 µM, first compound 0.00316 µM",70.8%
same,"viability, T/C","second compound 0.1 µM, first compound 0.01 µM",50.3%
same,"viability, T/C","second compound 0.1 µM, first compound 0.0316 µM",7.58%
same,"viability, T/C","second compound 0.1 µM, first compound 0.1 µM",3.19%
same,"viability, T/C","second compound 0.1 µM, first compound 0.316 µM",2.68%
same,"viability, T/C","second compound 0.1 µM, first compound 1 µM",1.61%
same,"viability, T/C","second compound 0.316 µM, first compound 0.00316 µM",77.1%
same,"viability, T/C","second compound 0.316 µM, first compound 0.01 µM",58.5%
same,"viability, T/C","second compound 0.316 µM, first compound 0.0316 µM",6.51%
same,"viability, T/C","second compound 0.316 µM, first compound 0.1 µM",5.25%
same,"viability, T/C","second compound 0.316 µM, first compound 0.316 µM",2.94%
same,"viability, T/C","second compound 0.316 µM, first compound 1 µM",1.38%
same,"viability, T/C","second compound 1 µM, first compound 0.00316 µM",83.2%
same,"viability, T/C","second compound 1 µM, first compound 0.01 µM",53.4%
same,"viability, T/C","second compound 1 µM, first compound 0.0316 µM",7.2%
same,"viability, T/C","second compound 1 µM, first compound 0.1 µM",3.22%
same,"viability, T/C","second compound 1 µM, first compound 0.316 µM",2.12%
same,"viability, T/C","second compound 1 µM, first compound 1 µM",2.67%
same,"viability, T/C","second compound 3.16 µM, first compound 0.00316 µM",77.6%
same,"viability, T/C","second compound 3.16 µM, first compound 0.01 µM",53.1%
same,"viability, T/C","second compound 3.16 µM, first compound 0.0316 µM",8.19%
same,"viability, T/C","second compound 3.16 µM, first compound 0.1 µM",3.45%
same,"viability, T/C","second compound 3.16 µM, first compound 0.316 µM",2.09%
same,"viability, T/C","second compound 3.16 µM, first compound 1 µM",3.3%
same,"viability, T/C","second compound 10 µM, first compound 0.00316 µM",91.4%
same,"viability, T/C","second compound 10 µM, first compound 0.01 µM",46%
same,"viability, T/C","second compound 10 µM, first compound 0.0316 µM",8.65%
same,"viability, T/C","second compound 10 µM, first compound 0.1 µM",6.24%
same,"viability, T/C","second compound 10 µM, first compound 0.316 µM",2.33%
same,"viability, T/C","second compound 10 µM, first compound 1 µM",2.35%
CC1(O)CCCC1n1c(=O)c(C(F)F)cc2cnc(NC3CCN(S(C)(=O)=O)CC3)nc21 (stereo unspecified) + CCn1c(-c2cccnc2C(C)OC)c2c3cc(ccc31)N1CCOC(CC(NC(=O)C(C(C)C)N(C)C(=O)C3(F)CCN(C(=O)C#CC(C)(C)N(C)C)CC3)C(=O)N3CCCC(N3)C(=O)OCC(C)(C)C2)C1,IC50,"curve of first compound, second compound 0.000949 µM",3730 nM
same,IC50,"curve of first compound, second compound 0.003 µM",3710 nM
same,IC50,"curve of first compound, second compound 0.00949 µM",2840 nM
same,IC50,"curve of first compound, second compound 0.03 µM",3470 nM
same,IC50,"curve of first compound, second compound 0.0949 µM",2710 nM
same,IC50,"curve of first compound, second compound 0.3 µM",3410 nM
same,"viability, T/C","second compound 0.000949 µM, first compound 0.0316 µM",98.1%
same,"viability, T/C","second compound 0.000949 µM, first compound 0.1 µM",86.7%
same,"viability, T/C","second compound 0.000949 µM, first compound 0.316 µM",72.3%
same,"viability, T/C","second compound 0.000949 µM, first compound 1 µM",68.8%
same,"viability, T/C","second compound 0.000949 µM, first compound 3.16 µM",56.8%
same,"viability, T/C","second compound 0.000949 µM, first compound 10 µM",33.6%
same,"viability, T/C","second compound 0.003 µM, first compound 0.0316 µM",99.8%
same,"viability, T/C","second compound 0.003 µM, first compound 0.1 µM",83%
same,"viability, T/C","second compound 0.003 µM, first compound 0.316 µM",71.6%
same,"viability, T/C","second compound 0.003 µM, first compound 1 µM",69.7%
same,"viability, T/C","second compound 0.003 µM, first compound 3.16 µM",59%
same,"viability, T/C","second compound 0.003 µM, first compound 10 µM",32.3%
same,"viability, T/C","second compound 0.00949 µM, first compound 0.0316 µM",107%
same,"viability, T/C","second compound 0.00949 µM, first compound 0.1 µM",84.5%
same,"viability, T/C","second compound 0.00949 µM, first compound 0.316 µM",69.7%
same,"viability, T/C","second compound 0.00949 µM, first compound 1 µM",63.4%
same,"viability, T/C","second compound 0.00949 µM, first compound 3.16 µM",55.9%
same,"viability, T/C","second compound 0.00949 µM, first compound 10 µM",32.9%
same,"viability, T/C","second compound 0.03 µM, first compound 0.0316 µM",110%
same,"viability, T/C","second compound 0.03 µM, first compound 0.1 µM",79.9%
same,"viability, T/C","second compound 0.03 µM, first compound 0.316 µM",69.6%
same,"viability, T/C","second compound 0.03 µM, first compound 1 µM",70.1%
same,"viability, T/C","second compound 0.03 µM, first compound 3.16 µM",59.7%
same,"viability, T/C","second compound 0.03 µM, first compound 10 µM",32.3%
same,"viability, T/C","second compound 0.0949 µM, first compound 0.0316 µM",94%
same,"viability, T/C","second compound 0.0949 µM, first compound 0.1 µM",80.2%
same,"viability, T/C","second compound 0.0949 µM, first compound 0.316 µM",66.3%
same,"viability, T/C","second compound 0.0949 µM, first compound 1 µM",64.8%
same,"viability, T/C","second compound 0.0949 µM, first compound 3.16 µM",55.6%
same,"viability, T/C","second compound 0.0949 µM, first compound 10 µM",27%
same,"viability, T/C","second compound 0.3 µM, first compound 0.0316 µM",88.5%
same,"viability, T/C","second compound 0.3 µM, first compound 0.1 µM",77.8%
same,"viability, T/C","second compound 0.3 µM, first compound 0.316 µM",69.3%
same,"viability, T/C","second compound 0.3 µM, first compound 1 µM",63.7%
same,"viability, T/C","second compound 0.3 µM, first compound 3.16 µM",59.6%
same,"viability, T/C","second compound 0.3 µM, first compound 10 µM",23.1%
C#Cc1c(F)ccc2cc(O)cc(-c3ncc4c(N5CC6CCC(C5)N6)nc(OCC56CCCN5CC(F)C6)nc4c3F)c12 (stereo unspecified),"viability, T/C",compound 0.0316 µM,108% [middle of 8 runs]
same,"viability, T/C",compound 0.1 µM,109% [middle of 8 runs]
same,"viability, T/C",compound 0.316 µM,107% [middle of 8 runs]
same,"viability, T/C",compound 1 µM,112% [middle of 8 runs]
same,"viability, T/C",compound 3.16 µM,111% [middle of 8 runs]
same,"viability, T/C",compound 10 µM,110% [middle of 8 runs]
same,IC50,"compound alone, run of 09/09/2024",> 10000 nM
